Data published in the supplement of paper PMC10307832.

What was measured:
Assay in all cases: relative viability (nuclei count vs DMSO), 5 days (fraction); higher = more cells survive
[1] = compound: CCN(CC)CCNC(=O)c1c(C)[nH]c(/C=C2\C(=O)Nc3ccc(F)cc32)c1C [Sunitinib] + CCNC(=O)c1noc(-c2cc(C(C)C)c(O)cc2O)c1-c1ccc(CN2CCOCC2)cc1 [Luminespib] (partner 0.01 µM)
In short: (§1)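 Cells from lung cancer lines were seeded into 1536-well plates and, one day later, dosed by pin tool. Treatments were either a single drug or a fixed dose of an anchor drug with five library-drug doses (not always all listed) in √10 steps. After 5 days, nuclei were stained in a one-step fixation (final 0.05% Triton X-100, 1% formaldehyde, 1 ug/ml Hoechst) and counted on 4× images, and relative viability is the treated-to-vehicle nuclei ratio, as the median of duplicate plates.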

[2] = compound: CCN(CC)CCNC(=O)c1c(C)[nH]c(/C=C2\C(=O)Nc3ccc(F)cc32)c1C [Sunitinib] + Cc1cc(Nc2cc(N3CCN(C)CC3)nc(Sc3ccc(NC(=O)C4CC4)cc3)n2)n[nH]1 [Tozasertib] (partner 0.1 µM)
In short: as §1

[3] = compound: CCN(CC)CCNC(=O)c1c(C)[nH]c(/C=C2\C(=O)Nc3ccc(F)cc32)c1C [Sunitinib] + Cc1nc(NC(=O)N2CCC[C@H]2C(N)=O)sc1-c1ccnc(C(C)(C)C(F)(F)F)c1 [Alpelisib] (partner 2 µM)
In short: as §1

[4] = compound: CCN(CC)CCNC(=O)c1c(C)[nH]c(/C=C2\C(=O)Nc3ccc(F)cc32)c1C [Sunitinib] + Cc1nc(Nc2ncc(C(=O)Nc3c(C)cccc3Cl)s2)cc(N2CCN(CCO)CC2)n1 [Dasatinib] (partner 0.075 µM)
In short: as §1

Row | Cell Line | relative viability ([1]; first compound 0.02 µM) | relative viability ([1]; first compound 0.06325 µM) | relative viability ([1]; first compound 0.2 µM) | relative viability ([1]; first compound 0.6325 µM) | relative viability ([1]; first compound 2 µM) | relative viability ([2]; first compound 0.02 µM) | relative viability ([2]; first compound 0.06325 µM) | relative viability ([2]; first compound 0.2 µM) | relative viability ([2]; first compound 0.6325 µM) | relative viability ([2]; first compound 2 µM) | relative viability ([3]; first compound 0.02 µM) | relative viability ([3]; first compound 0.06325 µM) | relative viability ([3]; first compound 0.2 µM) | relative viability ([3]; first compound 0.6325 µM) | relative viability ([3]; first compound 2 µM) | relative viability ([4]; first compound 0.02 µM) | relative viability ([4]; first compound 0.06325 µM) | relative viability ([4]; first compound 0.2 µM) | relative viability ([4]; first compound 0.6325 µM) | relative viability ([4]; first compound 2 µM)
1 | HCC-827 | 0.572 | 0.377 | 0.606 | 0.751 | 0.554 | 0.405 | 0.416 | 0.449 | 0.439 | 0.407 | 1.02 | 1.04 | 1.01 | 1.04 | 0.887 | 0.259 | 0.284 | 0.336 | 0.279 | 0.342
2 | HOP-62 | 0.832 | 0.928 | 1 | 1.02 | 0.919 | 0.351 | 0.352 | 0.383 | 0.431 | 0.397 | 0.964 | 0.851 | 1.04 | 1.05 | 0.919 | 0.616 | 0.744 | 0.826 | 0.777 | 0.682
3 | IA-LM | – | – | – | – | – | – | – | – | – | – | 0.645 | 0.812 | 0.773 | 0.919 | 0.87 | – | – | – | – | –
4 | LC-2-ad | 1.09 | 1.06 | 1.18 | 1.04 | 0.913 | 0.479 | 0.484 | 0.486 | 0.502 | 0.493 | 0.897 | 0.613 | – | 0.891 | 0.605 | 0.621 | 0.599 | 0.872 | 0.558 | 0.403
5 | LCLC-97TM1 | 0.597 | 0.743 | – | 0.794 | 0.772 | 0.202 | 0.214 | 0.268 | 0.195 | 0.236 | 0.24 | 0.351 | – | 0.276 | 0.286 | 0.918 | 0.904 | 0.914 | 0.911 | 0.793
6 | LCLC-103H | 0.883 | 1.04 | 0.966 | 0.977 | 1.06 | 0.459 | 0.44 | 0.478 | 0.44 | 0.514 | 0.822 | 0.945 | 0.993 | 0.958 | 0.959 | 0.428 | 0.527 | 0.501 | 0.462 | 0.589
7 | LK-2 | 0.193 | 0.213 | 0.208 | 0.231 | 0.2 | 0.177 | 0.196 | 0.167 | 0.167 | 0.188 | 0.942 | 0.906 | 1.28 | 1.18 | 0.916 | 0.223 | 0.27 | 0.324 | 0.339 | 0.297
8 | LOU-NH91 | 0.332 | 0.403 | 0.338 | 0.357 | 0.349 | 0.666 | 0.732 | 0.673 | 0.753 | 0.738 | – | 0.71 | 0.76 | 0.752 | 0.652 | 0.576 | 0.564 | 0.615 | 0.648 | 0.644
9 | LU99A | 0.281 | 0.254 | 0.281 | 0.221 | 0.299 | 0.296 | 0.285 | 0.267 | 0.273 | 0.273 | 0.512 | 0.547 | 0.586 | 0.566 | – | 0.489 | 0.5 | 0.612 | 0.57 | 0.49
10 | LXF-289 | 0.635 | 0.734 | 0.89 | – | 0.651 | 0.199 | 0.182 | 0.191 | 0.203 | 0.269 | 1.01 | 1.02 | 1.13 | 1.12 | 1.04 | 0.248 | 0.25 | 0.237 | 0.204 | 0.271
11 | NCI-H23 | 0.214 | 0.229 | 0.204 | 0.214 | 0.21 | – | 0.37 | 0.499 | 0.341 | 0.264 | 0.568 | 0.747 | 0.751 | 0.828 | 0.692 | 0.658 | 0.787 | 0.959 | 0.955 | 0.794
12 | NCI-H322M | – | 0.859 | 0.966 | 0.948 | 0.616 | 0.452 | 0.464 | 0.546 | 0.547 | 0.42 | 0.728 | 0.739 | 0.855 | 0.822 | 0.664 | 0.257 | 0.264 | 0.293 | 0.265 | 0.253
13 | NCI-H522 | 0.951 | 1.11 | 1.21 | 1.14 | 1.28 | 0.6 | 0.568 | 0.499 | 0.521 | 0.682 | – | – | – | – | – | 0.731 | 1.05 | 0.899 | 1.04 | 0.923
14 | NCI-H1299 | – | – | – | – | – | – | – | – | – | – | 1.02 | – | 1.06 | 1.08 | 1.06 | – | – | – | – | –
15 | NCI-H1563 | 0.54 | 0.566 | 0.5 | 0.517 | 0.479 | – | – | – | – | – | 0.984 | 0.952 | 0.884 | 0.93 | 0.965 | 0.487 | 0.505 | 0.441 | 0.422 | 0.489
16 | NCI-H1648 | – | – | – | – | – | – | 0.477 | 0.482 | 0.596 | 0.667 | – | – | – | – | – | – | – | – | – | –
17 | NCI-H1650 | 0.219 | 0.201 | 0.206 | 0.198 | 0.217 | 0.323 | 0.416 | 0.382 | 0.321 | 0.245 | – | – | – | – | – | 0.321 | 0.337 | 0.309 | 0.358 | 0.268
18 | NCI-H1703 | – | – | – | – | – | – | – | – | – | – | 0.211 | 0.161 | 0.199 | 0.154 | 0.188 | – | – | – | – | –
19 | NCI-H1792 | – | 0.38 | 0.622 | 0.483 | 0.426 | – | – | – | – | – | 0.578 | 0.56 | 0.78 | 0.682 | 0.824 | 0.678 | 0.799 | 1.02 | 0.754 | 0.74
20 | NCI-H2342 | 0.658 | 0.67 | 0.868 | 0.778 | 0.838 | 0.396 | 0.616 | 0.539 | 0.56 | 0.453 | – | – | – | – | – | 0.327 | 0.288 | 0.301 | 0.338 | 0.336
21 | SW 900 | 0.183 | 0.22 | 0.172 | 0.192 | 0.194 | 0.432 | 0.58 | 0.648 | 0.525 | 0.328 | – | – | – | – | – | 0.418 | 0.722 | 0.634 | 0.717 | 0.605
